Measurements taken from PubChem BioAssay (NCI).
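These data come from cells grown in 96-well plates and exposed to compound for 48 hours at five concentrations. The concentration for 50% growth inhibition is given as GI50. Definition used: TGI = concentration required for complete inhibition of growth.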

Key:
Assay in all cases: NCI-60 cell line screen, 48 h
IGROV1 ovarian = tested on: IGROV1 ovarian
RXF 393 renal = tested on: RXF 393 renal
CAKI-1 renal = tested on: CAKI-1 renal
U251 CNS = tested on: U251 CNS
SF-295 CNS = tested on: SF-295 CNS
SW-620 colon = tested on: SW-620 colon
COLO 205 colon = tested on: COLO 205 colon
ACHN renal = tested on: ACHN renal
TK-10 renal = tested on: TK-10 renal
SN12C renal = tested on: SN12C renal
HOP-62 NSCLC = tested on: HOP-62 NSCLC
MDA-MB-435 = tested on: MDA-MB-435
OVCAR-4 ovarian = tested on: OVCAR-4 ovarian
786-0 renal = tested on: 786-0 renal
K-562 leukemia = tested on: K-562 leukemia
HT29 colon = tested on: HT29 colon
NCI-H226 lung = tested on: NCI-H226 lung
SF-268 CNS = tested on: SF-268 CNS
UACC-257 melanoma = tested on: UACC-257 melanoma
LOX IMVI melanoma = tested on: LOX IMVI melanoma
M14 melanoma = tested on: M14 melanoma
MCF7 breast = tested on: MCF7 breast
OVCAR-5 ovarian = tested on: OVCAR-5 ovarian
NCI/ADR-RES ovarian = tested on: NCI/ADR-RES ovarian
EKVX NSCLC = tested on: EKVX NSCLC
HCT-15 colon = tested on: HCT-15 colon
SR leukemia = tested on: SR leukemia
CCRF-CEM leukemia = tested on: CCRF-CEM leukemia
PC-3 prostate = tested on: PC-3 prostate
NCI-H23 lung = tested on: NCI-H23 lung
SK-MEL-2 melanoma = tested on: SK-MEL-2 melanoma
SK-MEL-5 melanoma = tested on: SK-MEL-5 melanoma
KM12 colon = tested on: KM12 colon
SF-539 CNS = tested on: SF-539 CNS
OVCAR-8 ovarian = tested on: OVCAR-8 ovarian
HL-60(TB) leukemia = tested on: HL-60(TB) leukemia
MDA-MB-231 breast = tested on: MDA-MB-231 breast
NCI-H460 lung = tested on: NCI-H460 lung
UACC-62 melanoma = tested on: UACC-62 melanoma
MOLT-4 leukemia = tested on: MOLT-4 leukemia
SNB-19 CNS = tested on: SNB-19 CNS
SK-OV-3 ovarian = tested on: SK-OV-3 ovarian
T-47D breast = tested on: T-47D breast
OVCAR-3 ovarian = tested on: OVCAR-3 ovarian
MALME-3M melanoma = tested on: MALME-3M melanoma
BT-549 breast = tested on: BT-549 breast
DU-145 prostate = tested on: DU-145 prostate
HOP-92 NSCLC = tested on: HOP-92 NSCLC
UO-31 renal = tested on: UO-31 renal
SK-MEL-28 melanoma = tested on: SK-MEL-28 melanoma
A549 NSCLC = tested on: A549 NSCLC
SNB-75 CNS = tested on: SNB-75 CNS
HCT-116 colon = tested on: HCT-116 colon

Cn1ncc2c(Sc3ccc(Cl)cc3)ncnc21
GI50 (IGROV1 ovarian): 4.36 µM | TGI (IGROV1 ovarian): 49.8 µM | GI50 (RXF 393 renal): 98.4 µM | TGI (RXF 393 renal): > 100 µM | GI50 (CAKI-1 renal): 15.4 µM | TGI (CAKI-1 renal): > 100 µM | GI50 (U251 CNS): 16.2 µM | TGI (U251 CNS): > 100 µM | GI50 (SF-295 CNS): 9.58 µM | TGI (SF-295 CNS): > 100 µM | GI50 (SW-620 colon): > 100 µM | TGI (SW-620 colon): > 100 µM | GI50 (COLO 205 colon): > 100 µM | TGI (COLO 205 colon): > 100 µM | GI50 (ACHN renal): > 100 µM | TGI (ACHN renal): > 100 µM | GI50 (TK-10 renal): > 100 µM | TGI (TK-10 renal): > 100 µM | GI50 (SN12C renal): 7.37 µM | TGI (SN12C renal): > 100 µM | GI50 (HOP-62 NSCLC): 28.8 µM | TGI (HOP-62 NSCLC): > 100 µM | GI50 (MDA-MB-435): 22.5 µM | TGI (MDA-MB-435): > 100 µM | GI50 (OVCAR-4 ovarian): 36 µM | TGI (OVCAR-4 ovarian): > 100 µM | GI50 (786-0 renal): 44.1 µM | TGI (786-0 renal): > 100 µM | GI50 (K-562 leukemia): > 100 µM | TGI (K-562 leukemia): > 100 µM | GI50 (HT29 colon): > 100 µM | TGI (HT29 colon): > 100 µM | GI50 (NCI-H226 lung): 36.5 µM | TGI (NCI-H226 lung): > 100 µM | GI50 (SF-268 CNS): 7.26 µM | TGI (SF-268 CNS): > 100 µM | GI50 (UACC-257 melanoma): > 100 µM | TGI (UACC-257 melanoma): > 100 µM | GI50 (LOX IMVI melanoma): 12 µM | TGI (LOX IMVI melanoma): > 100 µM | GI50 (M14 melanoma): 93.5 µM | TGI (M14 melanoma): > 100 µM | GI50 (MCF7 breast): > 100 µM | TGI (MCF7 breast): > 100 µM | GI50 (OVCAR-5 ovarian): > 100 µM | TGI (OVCAR-5 ovarian): > 100 µM | GI50 (NCI/ADR-RES ovarian): 21.7 µM | TGI (NCI/ADR-RES ovarian): > 100 µM | GI50 (EKVX NSCLC): 10.5 µM | TGI (EKVX NSCLC): > 100 µM | GI50 (HCT-15 colon): > 100 µM | TGI (HCT-15 colon): > 100 µM | GI50 (SR leukemia): 20.6 µM | TGI (SR leukemia): > 100 µM | GI50 (CCRF-CEM leukemia): 4.8 µM | TGI (CCRF-CEM leukemia): > 100 µM | GI50 (PC-3 prostate): 7.03 µM | TGI (PC-3 prostate): > 100 µM | GI50 (NCI-H23 lung): 15.9 µM | TGI (NCI-H23 lung): > 100 µM | GI50 (SK-MEL-2 melanoma): > 100 µM | TGI (SK-MEL-2 melanoma): > 100 µM | GI50 (SK-MEL-5 melanoma): 51.5 µM | TGI (SK-MEL-5 melanoma): > 100 µM | GI50 (KM12 colon): 11.6 µM | TGI (KM12 colon): > 100 µM | GI50 (SF-539 CNS): 68.1 µM | TGI (SF-539 CNS): > 100 µM | GI50 (OVCAR-8 ovarian): > 100 µM | TGI (OVCAR-8 ovarian): > 100 µM | GI50 (HL-60(TB) leukemia): 11.3 µM | TGI (HL-60(TB) leukemia): > 100 µM | GI50 (MDA-MB-231 breast): 13.2 µM | TGI (MDA-MB-231 breast): > 100 µM | GI50 (NCI-H460 lung): 21.3 µM | TGI (NCI-H460 lung): > 100 µM | GI50 (UACC-62 melanoma): 77.8 µM | TGI (UACC-62 melanoma): > 100 µM | GI50 (MOLT-4 leukemia): 10.3 µM | TGI (MOLT-4 leukemia): > 100 µM | GI50 (SNB-19 CNS): 26.9 µM | TGI (SNB-19 CNS): > 100 µM | GI50 (SK-OV-3 ovarian): 67.9 µM | TGI (SK-OV-3 ovarian): > 100 µM | GI50 (T-47D breast): 14.4 µM | TGI (T-47D breast): > 100 µM | GI50 (OVCAR-3 ovarian): 36.5 µM | TGI (OVCAR-3 ovarian): > 100 µM | GI50 (MALME-3M melanoma): 57.4 µM | TGI (MALME-3M melanoma): > 100 µM | GI50 (BT-549 breast): 27.3 µM | TGI (BT-549 breast): > 100 µM | GI50 (DU-145 prostate): 36.1 µM | TGI (DU-145 prostate): > 100 µM | GI50 (HOP-92 NSCLC): 3.31 µM | TGI (HOP-92 NSCLC): > 100 µM | GI50 (UO-31 renal): 5.53 µM | TGI (UO-31 renal): > 100 µM | GI50 (SK-MEL-28 melanoma): > 100 µM | TGI (SK-MEL-28 melanoma): > 100 µM | GI50 (A549 NSCLC): 18.8 µM | TGI (A549 NSCLC): > 100 µM | GI50 (SNB-75 CNS): 22.9 µM | TGI (SNB-75 CNS): > 100 µM | GI50 (HCT-116 colon): 55.1 µM | TGI (HCT-116 colon): > 100 µM
